From ChEMBL document CHEMBL4270599, “Synthesis of a 3'-C-ethynyl-β-d-ribofuranose purine nucleoside library: Discovery of C7-deazapurine analogs as potent antiproliferative nucleosides” (Eur J Med Chem, 2018)

Tests used:
Type in all cases: functional
OVCAR-3 = assay: Growth inhibition of human OVCAR3 cells assessed as cell growth at 10^-6 M incubated for 48 hrs by sulforhodamine B assay relative to control; settings: OVCAR-3, 48 h, read-out: Activity
NCI-H23 [1] = assay: Growth inhibition of human NCI-H23 cells assessed as cell growth at 10^-6 M incubated for 48 hrs by sulforhodamine B assay relative to control; settings: NCI-H23, 48 h, read-out: Activity
NCI-H23 [2] = assay: Growth inhibition of human NCI-H23 cells assessed as cell growth at 10^-8 M incubated for 48 hrs by sulforhodamine B assay relative to control; settings: NCI-H23, 48 h, read-out: Activity
HT-29 [3] = assay: Cytotoxicity against human HT-29 cells after 48 hrs by SRB assay; settings: HT-29, 48 h
NCI/ADR-RES = assay: Growth inhibition of human NCI/ADR-RES cells assessed as cell growth at 10^-4 M incubated for 48 hrs by sulforhodamine B assay relative to control; settings: read-out: Activity
SF-268 [4] = assay: Growth inhibition of human SF268 cells assessed as cell growth at 10^-6 M incubated for 48 hrs by sulforhodamine B assay relative to control; settings: SF-268, 48 h, read-out: Activity
EKVX = assay: Growth inhibition of human EKVX cells assessed as cell growth at 10^-6 M incubated for 48 hrs by sulforhodamine B assay relative to control; settings: read-out: Activity
PC-3 = assay: Growth inhibition of human PC3 cells assessed as cell growth at 10^-7 M incubated for 48 hrs by sulforhodamine B assay relative to control; settings: PC-3, 48 h, read-out: Activity
SNB-75 = assay: Growth inhibition of human SNB75 cells assessed as cell growth at 10^-7 M incubated for 48 hrs by sulforhodamine B assay relative to control; settings: SNB-75, 48 h, read-out: Activity
HOP-62 = assay: Cytotoxicity against human HOP62 cells after 48 hrs by SRB assay; settings: HOP-62, 48 h
OVCAR-4 = assay: Growth inhibition of human OVCAR4 cells assessed as cell growth at 10^-6 M incubated for 48 hrs by sulforhodamine B assay relative to control; settings: OVCAR-4, 48 h, read-out: Activity
HCT-116 [5] = assay: Cytotoxicity against human HCT116 cells after 48 hrs by SRB assay; settings: HCT-116, 48 h; for CC50: read-out: LC50 (the source's name)
U-251 = assay: Growth inhibition of human U251 cells assessed as cell growth at 10^-7 M incubated for 48 hrs by sulforhodamine B assay relative to control; settings: U-251, 48 h, read-out: Activity
NCI-H460 = assay: Growth inhibition of human NCI-H460 cells assessed as cell growth at 10^-7 M incubated for 48 hrs by sulforhodamine B assay relative to control; settings: NCI-H460, 48 h, read-out: Activity
COLO 205 = assay: Growth inhibition of human COLO205 cells assessed as cell growth at 10^-8 M incubated for 48 hrs by sulforhodamine B assay relative to control; settings: COLO 205, 48 h, read-out: Activity
NCI-H322M [6] = assay: Growth inhibition of human NCI-H322M cells assessed as cell growth at 10^-6 M incubated for 48 hrs by sulforhodamine B assay relative to control; settings: read-out: Activity
Hs-578T = assay: Cytotoxicity against human Hs 578T cells after 48 hrs by SRB assay
UO-31 = assay: Growth inhibition of human UO31 cells assessed as cell growth at 10^-7 M incubated for 48 hrs by sulforhodamine B assay relative to control; settings: UO-31, 48 h, read-out: Activity
NCI-H322M [7] = assay: Growth inhibition of human NCI-H322M cells assessed as cell growth at 10^-8 M incubated for 48 hrs by sulforhodamine B assay relative to control; settings: read-out: Activity
HCT-15 = assay: Growth inhibition of human HCT15 cells assessed as cell growth at 10^-5 M incubated for 48 hrs by sulforhodamine B assay relative to control; settings: HCT-15, 48 h, read-out: Activity
SF-268 [8] = assay: Growth inhibition of human SF268 cells assessed as cell growth at 10^-5 M incubated for 48 hrs by sulforhodamine B assay relative to control; settings: SF-268, 48 h, read-out: Activity
HT-29 [9] = assay: Growth inhibition of human HT-29 cells assessed as cell growth at 10^-7 M incubated for 48 hrs by sulforhodamine B assay relative to control; settings: HT-29, 48 h, read-out: Activity
MCF7 = assay: Growth inhibition of human MCF7 cells assessed as cell growth at 10^-7 M incubated for 48 hrs by sulforhodamine B assay relative to control; settings: MCF7, 48 h, read-out: Activity
UACC-62 = assay: Growth inhibition of human UACC62 cells assessed as cell growth at 10^-6 M incubated for 48 hrs by sulforhodamine B assay relative to control; settings: UACC-62, 48 h, read-out: Activity
SK-MEL-2 = assay: Growth inhibition of human SK-MEL-2 cells assessed as cell growth at 10^-6 M incubated for 48 hrs by sulforhodamine B assay relative to control; settings: SK-MEL-2, 48 h, read-out: Activity
IGROV-1 = assay: Growth inhibition of human IGROV1 cells assessed as cell growth at 10^-4 M incubated for 48 hrs by sulforhodamine B assay relative to control; settings: IGROV-1, 48 h, read-out: Activity
RPMI-8226 = assay: Growth inhibition of human RPMI8226 cells assessed as cell growth at 10^-8 M incubated for 48 hrs by sulforhodamine B assay relative to control; settings: RPMI-8226, 48 h, read-out: Activity
786-0 = assay: Growth inhibition of human 786-0 cells assessed as cell growth at 10^-6 M incubated for 48 hrs by sulforhodamine B assay relative to control; settings: 786-0, 48 h, read-out: Activity
NCI-H322M [10] = assay: Cytotoxicity against human NCI-H322M cells after 48 hrs by SRB assay
HCT-116 [11] = assay: Growth inhibition of human HCT116 cells assessed as cell growth at 10^-5 M incubated for 48 hrs by sulforhodamine B assay relative to control; settings: HCT-116, 48 h, read-out: Activity
OVCAR-5 = assay: Cytotoxicity against human OVCAR5 cells after 48 hrs by SRB assay; settings: OVCAR-5, 48 h
SK-OV-3 = assay: Growth inhibition of human SKOV3 cells assessed as cell growth at 10^-7 M incubated for 48 hrs by sulforhodamine B assay relative to control; settings: SK-OV-3, 48 h, read-out: Activity
[12] = read-out: pLC50 (the source's name) (converted)
[13] = read-out: LC50 (the source's name)

C#C[C@@]1(O)[C@@H](CO)O[C@@H](n2cc(F)c3c(N)ncnc32)[C@@H]1O
growth at 1 µM (OVCAR-3): 52% | growth at 1 µM (NCI-H23 [1]): 22% | growth at 0.01 µM (NCI-H23 [2]): 97% | TGI (HT-29 [3]; read-out: TGI): > 100 µM | GI50 (HT-29 [3]; read-out: pGI50 (converted)): 0.209 µM | CC50 (HT-29 [3]; [12]): > 100 µM | TGI (HT-29 [3]; read-out: pTGI (converted)): > 100 µM | growth at 100 µM (NCI/ADR-RES): -6% | growth at 1 µM (SF-268 [4]): 42% | growth at 1 µM (EKVX): 43% | growth at 0.1 µM (PC-3): 84% | growth at 0.1 µM (SNB-75): 107% | TGI (HOP-62; read-out: TGI): 7.79 µM | GI50 (HOP-62; read-out: pGI50 (converted)): 0.575 µM | CC50 (HOP-62; [12]): > 100 µM | TGI (HOP-62; read-out: pTGI (converted)): 7.76 µM | growth at 1 µM (OVCAR-4): 50% | CC50 (HCT-116 [5]): > 100 µM | GI50 (HCT-116 [5]; read-out: pGI50 (converted)): 0.151 µM | growth at 0.1 µM (U-251): 99% | growth at 0.1 µM (NCI-H460): 76% | growth at 0.01 µM (COLO 205): 101% | growth at 1 µM (NCI-H322M [6]): 31% | CC50 (Hs-578T; [13]): > 100 µM | TGI (Hs-578T; read-out: TGI): > 100 µM | GI50 (Hs-578T; read-out: pGI50 (converted)): 3.98 µM | TGI (Hs-578T; read-out: pTGI): > 100 µM | growth at 0.1 µM (UO-31): 104% | growth at 0.01 µM (NCI-H322M [7]): 93% | growth at 10 µM (HCT-15): -18% | growth at 10 µM (SF-268 [8]): 7% | growth at 0.1 µM (HT-29 [9]): 68% | growth at 0.1 µM (MCF7): 51% | growth at 1 µM (UACC-62): 12% | growth at 1 µM (SK-MEL-2): 22% | growth at 100 µM (IGROV-1): -38% | growth at 0.01 µM (RPMI-8226): 94% | growth at 1 µM (786-0): 43% | CC50 (NCI-H322M [10]; [13]): > 100 µM | TGI (NCI-H322M [10]; read-out: TGI): 4.48 µM | GI50 (NCI-H322M [10]; read-out: pGI50 (converted)): 0.501 µM | TGI (NCI-H322M [10]; read-out: pTGI (converted)): 4.47 µM | growth at 10 µM (HCT-116 [11]): -9% | CC50 (OVCAR-5; [13]): > 100 µM | TGI (OVCAR-5; read-out: TGI): > 100 µM | GI50 (OVCAR-5; read-out: pGI50 (converted)): 1.78 µM | TGI (OVCAR-5; read-out: pTGI (converted)): > 100 µM | growth at 0.1 µM (SK-OV-3): 81%

C#C[C@@]1(O)[C@@H](CO)O[C@@H](n2cc(Br)c3c(N)ncnc32)[C@@H]1O
growth at 1 µM (OVCAR-3): 15 to 17% | growth at 1 µM (NCI-H23 [1]): 7 to 13% | growth at 0.01 µM (NCI-H23 [2]): 90 to 91% | GI50 (HT-29 [3]; read-out: GI50): 0.0258 to 0.0559 µM | CC50 (HT-29 [3]; [13]): > 100 µM | TGI (HT-29 [3]; read-out: TGI): > 100 µM | TGI (HT-29 [3]; read-out: pTGI (converted)): > 100 µM | growth at 1 µM (SF-268 [4]): 34 to 36% | growth at 1 µM (EKVX): 4 to 17% | growth at 0.1 µM (PC-3): 33 to 61% | growth at 0.1 µM (SNB-75): 81 to 96% | GI50 (HOP-62; read-out: GI50): 0.211 to 0.427 µM | CC50 (HOP-62; [13]): > 100 µM | TGI (HOP-62; read-out: TGI): 4.76 to 100 µM | growth at 1 µM (OVCAR-4): 19 to 29% | GI50 (HCT-116 [5]; read-out: GI50): 0.0258 to 0.0292 µM | CC50 (HCT-116 [5]): > 100 µM | TGI (HCT-116 [5]; read-out: TGI): > 100 µM | TGI (HCT-116 [5]; read-out: pTGI (converted)): > 100 µM | growth at 0.1 µM (U-251): 2 to 11% | growth at 0.1 µM (NCI-H460): 9 to 27% | growth at 0.01 µM (COLO 205): 95 to 97% | growth at 1 µM (NCI-H322M [6]): 26 to 33% | GI50 (Hs-578T; read-out: GI50): 0.307 to 1.35 µM | TGI (Hs-578T; read-out: TGI): 52.4 to 100 µM | CC50 (Hs-578T; [12]): > 100 µM | growth at 0.1 µM (UO-31): 55 to 57% | growth at 0.01 µM (NCI-H322M [7]): 91 to 95% | growth at 10 µM (HCT-15): 3% | growth at 10 µM (SF-268 [8]): 7 to 11% | growth at 0.1 µM (HT-29 [9]): 10 to 35% | growth at 0.1 µM (MCF7): 12 to 25% | growth at 1 µM (UACC-62): 21 to 23% | growth at 100 µM (IGROV-1): -2% | growth at 0.01 µM (RPMI-8226): 95 to 101% | GI50 (NCI-H322M [10]; read-out: GI50): 0.326 to 0.372 µM | TGI (NCI-H322M [10]; read-out: TGI): 4.74 to 5.41 µM | CC50 (NCI-H322M [10]; [12]): > 100 µM | growth at 10 µM (HCT-116 [11]): 3 to 5% | GI50 (OVCAR-5; read-out: GI50): 0.257 to 1.37 µM | TGI (OVCAR-5; read-out: TGI): 56.7 to 100 µM | CC50 (OVCAR-5; [12]): > 100 µM | growth at 0.1 µM (SK-OV-3): 28 to 62%
